From paper PMC3313677 (Biochemistry, 2012)
Where two headings read alike, the source gives them in different places.

Key:
[1] = target: Mandelate racemase (MR, EC 5.1.2.2); details: cited from earlier work
Y54F MR = Y54F MR (Pseudomonas putida, UniProt P11444, Y54F); experiment: CD-based competitive inhibition of MR variant Y54F; format: biochemical
Y54L MR = Y54L MR (Pseudomonas putida, UniProt P11444, Y54L); experiment: CD-based competitive inhibition of MR variant Y54L; format: biochemical
V22A MR = V22A MR (Pseudomonas putida, UniProt P11444, V22A); experiment: CD-based competitive inhibition of MR variant V22A; format: biochemical
Sequence of V22A MR (P11444 whole entry V22A): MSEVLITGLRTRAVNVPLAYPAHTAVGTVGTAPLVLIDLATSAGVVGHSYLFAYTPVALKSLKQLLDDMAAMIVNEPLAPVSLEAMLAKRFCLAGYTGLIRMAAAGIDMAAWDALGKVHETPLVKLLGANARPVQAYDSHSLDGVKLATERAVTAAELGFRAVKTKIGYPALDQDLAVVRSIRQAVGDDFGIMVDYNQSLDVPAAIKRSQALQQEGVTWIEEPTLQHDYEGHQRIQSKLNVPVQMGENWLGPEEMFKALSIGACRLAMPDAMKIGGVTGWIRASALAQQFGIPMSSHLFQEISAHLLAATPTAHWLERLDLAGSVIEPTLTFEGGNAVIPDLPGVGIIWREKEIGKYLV

V22I MR = V22I MR (Pseudomonas putida, UniProt P11444, V22I); experiment: CD-based competitive inhibition of MR variant V22I; format: biochemical
Sequence of V22I MR (P11444 whole entry V22I): as the sequence (P11444 whole entry V22A) above, with A22I counted along it

V22F MR = V22F MR (Pseudomonas putida, UniProt P11444, V22F); experiment: CD-based competitive inhibition of MR variant V22F; format: biochemical
Sequence of V22F MR (P11444 whole entry V22F): as the sequence (P11444 whole entry V22A) above, with A22F counted along it

T24S MR = T24S MR (Pseudomonas putida, UniProt P11444, T24S); experiment: CD-based competitive inhibition of MR variant T24S; format: biochemical
Sequence of T24S MR (P11444 whole entry T24S): as the sequence (P11444 whole entry V22A) above, with A22V, T24S counted along it

A25V MR = A25V MR (Pseudomonas putida, UniProt P11444, A25V); experiment: CD-based competitive inhibition of MR variant A25V; format: biochemical
Sequence of A25V MR (P11444 whole entry A25V): as the sequence (P11444 whole entry V22A) above, with A22V, A25V counted along it

V26A MR = V26A MR (Pseudomonas putida, UniProt P11444, V26A); experiment: CD-based competitive inhibition of MR variant V26A; format: biochemical
Sequence of V26A MR (P11444 whole entry V26A): as the sequence (P11444 whole entry V22A) above, with A22V, V26A counted along it

V26L MR = V26L MR (Pseudomonas putida, UniProt P11444, V26L); experiment: CD-based competitive inhibition of MR variant V26L; format: biochemical
Sequence of V26L MR (P11444 whole entry V26L): as the sequence (P11444 whole entry V22A) above, with A22V, V26L counted along it

V26F MR = V26F MR (Pseudomonas putida, UniProt P11444, V26F); experiment: CD-based competitive inhibition of MR variant V26F; format: biochemical
Sequence of V26F MR (P11444 whole entry V26F): as the sequence (P11444 whole entry V22A) above, with A22V, V26F counted along it

V26A/V29L MR = V26A/V29L MR (Pseudomonas putida, UniProt P11444, V26A/V29L); experiment: CD-based competitive inhibition of MR variant V26A/V29L; format: biochemical
Sequence of V26A/V29L MR (P11444 whole entry V26A/V29L): as the sequence (P11444 whole entry V22A) above, with A22V, V26A, V29L counted along it

V29A MR = V29A MR (Pseudomonas putida, UniProt P11444, V29A); experiment: CD-based competitive inhibition of MR variant V29A; format: biochemical
Sequence of V29A MR (P11444 whole entry V29A): as the sequence (P11444 whole entry V22A) above, with A22V, V29A counted along it

V29F MR = V29F MR (Pseudomonas putida, UniProt P11444, V29F); experiment: CD-based competitive inhibition of MR variant V29F; format: biochemical
Sequence of V29F MR (P11444 whole entry V29F): as the sequence (P11444 whole entry V22A) above, with A22V, V29F counted along it

V29D MR = details: read-out: Ki (competitive inhibition constant); cited from earlier work
N197A MR = details: read-out: Ki (competitive inhibition constant); cited from earlier work
E317Q MR = details: read-out: Ki (competitive inhibition constant); cited from earlier work
F52W MR = details: read-out: Ki (competitive inhibition constant); cited from earlier work
F52W/Y54W MR = details: read-out: Ki (competitive inhibition constant); cited from earlier work
[2] = reversible competitive inhibitor of MR

Sequence of Y54L MR (P11444 whole entry Y54L): as the sequence (P11444 whole entry V22A) above, with A22V, Y54L counted along it
Sequence of Y54F MR (P11444 whole entry Y54F): as the sequence (P11444 whole entry V22A) above, with A22V, Y54F counted along it

Q: Which Ki ([1]; ground state analogue, MR) does the source give for `C[C@@](O)(C(=O)O)c1ccccc1` [(S)-atrolactate] here?
A: 150 µM

Q: For `O=CN(O)c1ccccc1` [N-hydroxyformanilide], which Ki [1, 2] is on record?
A: 2.8 µM

Q: For `CC(=O)NO` [acetohydroxamate], which Ki ([1]; MR) is on record?
A: 27000 µM

Q: For `O=C(NO)c1ccccc1` [benzohydroxamate], which Ki (Y54F MR) is on record?
A: 13.1 ± 1.1 µM

Q: And the Ki (Y54L MR)?
A: 25.7 ± 1.9 µM

Q: And the Ki (V22A MR)?
A: 1.08 ± 0.46 mM

Q: And the Ki (V22I MR)?
A: 29.2 ± 5.2 µM

Q: And the Ki (V22F MR)?
A: 229 ± 86.6 µM

Q: And the Ki (T24S MR)?
A: 209 ± 9.9 µM

Q: What about the Ki (A25V MR) of the same molecule?
A: 611 ± 12.2 µM

Q: What about the Ki (V26A MR) of the same molecule?
A: 69.3 ± 2.2 µM

Q: And the Ki (V26L MR)?
A: 440 ± 26.9 µM

Q: And the Ki (V26F MR)?
A: 462 ± 31.7 µM

Q: What about the Ki (V26A/V29L MR) of the same molecule?
A: 79.2 ± 3.6 µM

Q: What about the Ki (V29A MR) of the same molecule?
A: 179 ± 23.3 µM

Q: What about the Ki (V29F MR) of the same molecule?
A: 40.1 ± 0.2 µM

Q: And the Ki (V29D MR)?
A: 2.9 ± 0.7 mM

Q: What about the Ki (N197A MR) of the same molecule?
A: 216 ± 6 µM

Q: What about the Ki (E317Q MR) of the same molecule?
A: 760 ± 31 µM

Q: And the Ki (F52W MR)?
A: 63 ± 10 µM

Q: What about the Ki (F52W/Y54W MR) of the same molecule?
A: 640 ± 190 µM

Q: And the Ki [1, 2]?
A: 9.3 µM

Q: For `O=NN(O)c1ccccc1` [cupferron], which Ki [1, 2] is on record?
A: 2.7 µM

Q: For `O=P(O)(O)C(O)c1ccccc1` (stereo not drawn) [α-hydroxybenzylphosphonate], which Ki [1, 2] is on record?
A: 4.7 µM
